Patent US20220233624A9, “ANTI-CANCER AND ANTI-PROLIFERATIVE COMPOSITIONS, AND METHODS FOR THEIR USE IN TREATING CANCER” (Natreon, Inc., priority 2020, published 2022)
“And” between values parts separate entries of the source, which are not always exact repeats. Equal values may be shown once. Read-outs that look alike come from different tables or passages of the source.

Tests used:
AML cell line HL60 = assay: Anti-proliferation assay on HL60 AML cells; assay type: cell-based; conditions: for IC25 / IC75: potential dosing for further experiments
Protocol: 2500 cells were plated per well in 384 well plates. […] CellTiter Glo was used as a detection reagent. Extracts were incubated with the AML HL60 cells for 72 hours.

[1] = test system: AML (Acute myeloid leukemia) PDCs, M4 subtype (SB 33866); assay: Anti-proliferation assay on AML PDCs; assay type: cell-based, human; conditions: for Inhibitory Concentration IC75 / Inhibitory Concentration IC25 / IC50: AML cells (M4); for Inhibitory Concentration IC25: calculated using IC50 and hill slope; for IC50: read-out: Inhibitory Concentration IC50; for inhibition at 10 µM: assay drug control @ 10 uM
Protocol: Anti-proliferation assays were performed on 6 types of primary patient-derived cancer cells (PDCs) from 6 different human donors, as described in Table 1:
Tests were performed in 384-well plates (24×16), using 1250 to 10,000 cells/well depending on the size and proliferation rate of different PDCs, in 30 ul of culture media (DMEM/F12 with serum and growth factors), with control wells set aside on each plate for media alone (4 wells), untreated PDCs (4 wells), and for PDCs treated with 10 ul of a known anti-cancer drug as a control. […] The outermost rows/columns of the plates were filled with PBS (pH 7.4) to avoid an edge-effect and were considered as blanks.
Standardized aqueous extracts identified in Table 2 were prepared in main stock solutions by dissolving 1 mg of extract in 1 ml PBS (phosphate-buffered saline, pH 7.4).
Anti-Proliferation Assay Protocol: 30 ul of cells were plated at the density of 1250 to 10,000 cells/well. The plate was incubated in a CO2 incubator for 0/N incubation for 24 hours. […] Final assay concentrations of made from stock solutions of standardized aqueous extracts identified in Table 2 were 100 ug/ml, 30 ug/ml, and 10 ug/ml. Since 10 ul extract was added to 30 ul of cell suspension, it diluted 4 times, so to maintain the final assay concentrations, 4× concentrated extract solutions (400 ug/ml, 120 ug/ml, and 40 ug/mo) were prepared from main stock (1 mg/ml) and added to the plate. In all experiments, 10 ul of 4 times concentrated stock (4×) was added to wells containing 30 ul of cell suspension to achieve final assay concentrations at 1X.
Once extracts were added to incubated cells and mixed gently, the plate was given a brief spin and incubated in the CO2 incubator for 72 hours. The plate was removed from the incubator and 10 ul of detection reagent (CellTiterGlo®; Promega Corporation, Wisconsin, USA) added to each well of the 384 well plate. The plate was incubated (10 min) and luminescence counts measured, with luminescence produced proportional to the number of viable (living, metabolically active) cells for each assay. The assay described above is a two-dimensional (2D) assay.
In this Example, AML drugs were used as disease specific controls.
As discussed above in Example I, 6 extracts (Ayuflex®, Capros®, Phyto-BGS®, PrimaVie®, Sensoril®, and Ayuric®) were tested on AML PDC-SB cells (33866, M-4 type, subject) at 3 concentrations: 100 ug/ml, 30 ug/ml, and 10 ug/ml.

[2] = test system: Breast Cancer PDCs, Triple negative (TN), SB 36344; assay: Anti-proliferation assay on breast cancer TN PDCs; assay type: cell-based, human; conditions: drug alone @ 10 uM; for inhibition at 10 µM: Homo sapiens
Protocol: (§1) The outermost rows/columns of the plates were filled with PBS (pH 7.4) to avoid an edge-effect and were considered as blanks. Standardized aqueous extracts identified in Table 2 were prepared in main stock solutions by dissolving 1 mg of extract in 1 ml PBS (phosphate-buffered saline, pH 7.4). […] The plate was incubated in a CO2 incubator for 0/N incubation for 24 hours. […] Once extracts were added to incubated cells and mixed gently, the plate was given a brief spin and incubated in the CO2 incubator for 72 hours. The plate was removed from the incubator and 10 ul of detection reagent (CellTiterGlo®; Promega Corporation, Wisconsin, USA) added to each well of the 384 well plate. […] The assay described above is a two-dimensional (2D) assay.

[3] = test system: Glioma PDCs (Glioblastoma Grade IV); assay: Anti-proliferation assay (CellTiterGlo, 72 h) on glioma PDCs; assay type: cell-based, human
Protocol: as §1

[4] = test system: Glioma SB 32833 Glioblastoma Grade IV patient derived cells; assay: Anti-proliferation assay on glioma PDCs SB 32833; assay type: cell-based; conditions: Homo sapiens; for inhibition at 10 µM: drug @ 10 uM; for inhibition at 100 µM: Temozolomide @ 100 uM
Protocol: The anti-cancer activity of AyuFlex®, Capros®, and Ayuric® was further tested on two other glioma PDCs taken from 2-3 different subjects (SB 6129, SB 32833 (person)). […] Also, the anti-cancer activity of AyuFlex®, Capros®, and Ayuric® was further tested on existing glioblastoma cell line U87 MG, to allow comparisons with other compositions known in the art. AyuFlex®, Capros®, and/or Ayuric® were incubated with the new PDC lines and the U87 MG cell line for 72 hours, as described in Example I above.
Table 68 relates to FIG. 31, a graph showing the efficacy of AyuFlex®, Capros®, and/or Ayuric® on Glioma SB 32833 Glioblastoma Grade IV patient derived cells, in a combination study.

[5] = test system: Breast Cancer PDCs, ER/PR+ Her2 equivocal (HR+); assay: Anti-proliferation assay on breast cancer HR+ PDCs; assay type: cell-based, human; conditions: drug alone @ 10 uM; for inhibition at 10 µM: Homo sapiens
Protocol: as §1

[6] = test system: Breast Cancer PDCs, ER/PR− Her2+ (Her2+); assay: Anti-proliferation assay on breast cancer Her2+ PDCs; assay type: cell-based, human; conditions: drug alone @ 10 uM; for inhibition at 10 µM: Homo sapiens
Protocol: as §1

[7] = read-out: % Inhibition, single replicates

With `Nc1ccn([C@@H]2O[C@H](CO)[C@@H](O)[C@@H]2O)c(=O)n1` [Cytarabine, cytarabine] as the compound, how does the IC25 (AML cell line HL60; HL60 AML cells) read?
Its IC25 is 298 nM.

And the IC75 (AML cell line HL60; HL60 AML cells)?
The IC75 was 1080 nM.

And the inhibition at 3 µM (AML cell line HL60; Homo sapiens, HL-60)?
The inhibition at 3 µM was ≥ 90%.

And the IC50 (AML cell line HL60; Homo sapiens, HL-60, dose-response curve, FIG. 35)?
The IC50 was 567 nM.

What about the “Inhibitory Concentration IC75” value [1] of the same compound?
Its value is 470 nM.

And the “Inhibitory Concentration IC25” value [1]?
Its value is 23 nM.

What about the inhibition at 3 µM ([1]; Homo sapiens, drug alone 3 uM, read-out: inhibition of AML proliferation) of the same compound?
Its inhibition at 3 µM is 99%.

What about the inhibition at 3 µM ([1]; Homo sapiens, drug alone @ 3 uM, read-out: % Inhibition Avg) of the same compound?
The inhibition at 3 µM was 99%.

And the inhibition at 3 µM ([1]; Homo sapiens, drug alone @ 3 uM, read-out: % Inhibition n1)?
The inhibition at 3 µM was 99%.

What about the inhibition at 3 µM ([1]; Homo sapiens, drug alone @ 3 uM, read-out: % Inhibition n2) of the same compound?
The inhibition at 3 µM was 99%.

What about the inhibition at 3 µM ([1]; Homo sapiens, drug alone @ 3 uM, read-out: % Inhibition n3) of the same compound?
Its inhibition at 3 µM is 99%.

And the IC50 ([1]; Homo sapiens)?
The IC50 was 104 nM.

With `CS(=O)(=O)N1CCN(Cc2cc3nc(-c4cccc5[nH]ncc45)nc(N4CCOCC4)c3s2)CC1` [GDC-0941, pictilisib] as the compound, how does the inhibition at 10 µM ([2]; read-out: % Inhibition Avg) read?
The inhibition at 10 µM was 83%.

What about the inhibition at 10 µM [2, 7] of the same compound?
Its inhibition at 10 µM is 84%.

And the “% Inhibition, single replicates” value ([2]; 10 µM)?
Its value is 82%.

And the inhibition at 10 µM ([3]; Homo sapiens, drug alone @ 10 uM, read-out: % Inhibition Avg)?
Its inhibition at 10 µM is 81%.

And the inhibition at 10 µM ([3]; Homo sapiens, drug alone @ 10 uM, read-out: % Inhibition, single replicates)?
The inhibition at 10 µM was 83%.

And the “% Inhibition, single replicates” value ([3]; drug alone @ 10 uM, 10 µM)?
Its value is 79%.

And the inhibition at 10 µM ([4]; read-out: % Inhibition Avg)?
Its inhibition at 10 µM is 100%.

And the inhibition at 10 µM ([4]; read-out: % Inhibition n1)?
Its inhibition at 10 µM is 100%.

And the inhibition at 10 µM ([4]; read-out: % Inhibition n2)?
The inhibition at 10 µM was 100%.

And the inhibition at 10 µM ([4]; read-out: % Inhibition n3)?
Its inhibition at 10 µM is 100%.

And the inhibition at 10 µM ([1]; Homo sapiens, read-out: % Inhibition Avg)?
The inhibition at 10 µM was 59%.

And the inhibition at 10 µM ([1]; Homo sapiens, read-out: % Inhibition n1)?
The inhibition at 10 µM was 56%.

And the inhibition at 10 µM ([1]; Homo sapiens, read-out: % Inhibition n2)?
The inhibition at 10 µM was 63%.

What about the inhibition at 10 µM ([5]; read-out: % Inhibition Avg) of the same compound?
Its inhibition at 10 µM is 68%.

And the inhibition at 10 µM [5, 7]?
The inhibition at 10 µM was 70%.

What about the “% Inhibition, single replicates” value ([5]; 10 µM) of the same compound?
The value was 67%.

And the inhibition at 10 µM ([6]; read-out: % Inhibition Avg)?
Its inhibition at 10 µM is 70%.

And the inhibition at 10 µM [6, 7]?
Its inhibition at 10 µM is 71%.

And the “% Inhibition, single replicates” value ([6]; 10 µM)?
Its value is 69%.

For `Cn1nnc2c(C(N)=O)ncn2c1=O` [Temozolomide, temozolomide], which inhibition at 30 µM ([3]; Homo sapiens, Temozolomide alone @ 30 uM) is on record?
Its inhibition at 30 µM is 24%.

And the inhibition at 100 µM ([3]; Homo sapiens, Temozolomide alone @ 100 uM, read-out: % Inhibition Avg)?
The inhibition at 100 µM was 32%.

And the inhibition at 100 µM ([3]; Homo sapiens, Temozolomide alone @ 100 uM, read-out: % Inhibition, single replicates)?
Its inhibition at 100 µM is 41%.

What about the inhibition at 300 µM ([3]; Homo sapiens, Temozolomide alone @ 300 uM, read-out: % Inhibition Avg) of the same compound?
The inhibition at 300 µM was 19%.

And the inhibition at 300 µM ([3]; Homo sapiens, Temozolomide alone @ 300 uM, read-out: % Inhibition, single replicates)?
Its inhibition at 300 µM is 28%.

What about the “% Inhibition, single replicates” value ([3]; Temozolomide alone @ 30 uM, 30 µM) of the same compound?
The value was 16% and 15%.

And the “% Inhibition, single replicates” value ([3]; Temozolomide alone @ 100 uM, 100 µM)?
The value was 27% and 29%.

What about the “% Inhibition, single replicates” value ([3]; Temozolomide alone @ 300 uM, 300 µM) of the same compound?
The value was 14% and 15%.

And the inhibition at 100 µM ([4]; read-out: % Inhibition Avg)?
The inhibition at 100 µM was 27%.

And the inhibition at 100 µM ([4]; read-out: % Inhibition n1)?
Its inhibition at 100 µM is 41%.

And the inhibition at 100 µM ([4]; read-out: % Inhibition n2)?
The inhibition at 100 µM was 21%.

And the inhibition at 100 µM ([4]; read-out: % Inhibition n3)?
The inhibition at 100 µM was 18%.

For arsenic trioxide, which IC50 (AML cell line HL60; HL60 AML cells) is on record?
Its IC50 is 2430 nM.

What about the IC25 (AML cell line HL60; HL60 AML cells) of the same compound?
Its IC25 is 1720 nM.

What about the IC75 (AML cell line HL60; HL60 AML cells) of the same compound?
The IC75 was 3010 nM.

What about the IC50 (AML cell line HL60; dose-response curve, FIG. 35) of the same compound?
The IC50 was 2300 nM.

And the “Inhibitory Concentration IC75” value [1]?
Its value is 6450 nM.

And the “Inhibitory Concentration IC25” value [1]?
The value was 1380 nM.

And the IC50 [1]?
Its IC50 is 2990 nM.

What about the “inhibition of AML proliferation” value ([1]; drug alone 3 uM) of the same compound?
Its value is 97%.

And the “% Inhibition Avg” value ([1]; drug alone @ 3 uM)?
The value was 97%.

What about the “% Inhibition n1” value ([1]; drug alone @ 3 uM) of the same compound?
Its value is 97%.

What about the “% Inhibition n2” value ([1]; drug alone @ 3 uM) of the same compound?
Its value is 97%.

What about the “% Inhibition n3” value ([1]; drug alone @ 3 uM) of the same compound?
Its value is 97%.
